According to patent US20230381146A1, “SUBSTITUTED HETEROARYL COMPOUNDS AND USE THEREOF” (HELIOS HUAMING BIOPHARMA CO., LTD., priority 2020, published 2023):

Target: PAD4 (Homo sapiens, UniProt Q9UM07)
Experiment: PAD4 Inhibition Assay (citrulline formation from BAEE substrate)
Format: biochemical
Conditions: PAD4 75 nM, 60 minute preincubation at 37° C., 90 minutes
Experimental: PAD4 was diluted to 75 nM in Assay Buffer (50 mM Tris-HCl, 2 mM CaCl2), 2 mM DTT, 1 mM PMSF in H2O) and added to wells with various concentrations of compound or DMSO vehicle in Eppendorf tubes (final volume was 100 μL). Following a 60 minute preincubation at 37° C., the reaction was initiated by the addition of 10 μL substrate (22 mM BAEE in H2O) at 37° C. The reaction was stopped after 90 minutes by the addition of 25 μL HClO4 (5 M), 125 μL Reagent A (10 g/L diacetyl monoxime and 15 g/L NaCl in H2O) and 250 μL Reagent B (10 mg/mL antipyrine and 1.0 mg/mL FeCl3 diluted in detection buffer containing 25% H2SO4, 25% H3PO4 and 50% H2O) in sequence. This assay was quenched in an ice-bath for 5 minutes after boiling for 30 minutes. The citrulline formation was measured in fluorescence (κ=465 nm) on microplate reader and the IC50 was calculated by GraphPad Prism.

Chain of PAD4 (Q9UM07 whole entry): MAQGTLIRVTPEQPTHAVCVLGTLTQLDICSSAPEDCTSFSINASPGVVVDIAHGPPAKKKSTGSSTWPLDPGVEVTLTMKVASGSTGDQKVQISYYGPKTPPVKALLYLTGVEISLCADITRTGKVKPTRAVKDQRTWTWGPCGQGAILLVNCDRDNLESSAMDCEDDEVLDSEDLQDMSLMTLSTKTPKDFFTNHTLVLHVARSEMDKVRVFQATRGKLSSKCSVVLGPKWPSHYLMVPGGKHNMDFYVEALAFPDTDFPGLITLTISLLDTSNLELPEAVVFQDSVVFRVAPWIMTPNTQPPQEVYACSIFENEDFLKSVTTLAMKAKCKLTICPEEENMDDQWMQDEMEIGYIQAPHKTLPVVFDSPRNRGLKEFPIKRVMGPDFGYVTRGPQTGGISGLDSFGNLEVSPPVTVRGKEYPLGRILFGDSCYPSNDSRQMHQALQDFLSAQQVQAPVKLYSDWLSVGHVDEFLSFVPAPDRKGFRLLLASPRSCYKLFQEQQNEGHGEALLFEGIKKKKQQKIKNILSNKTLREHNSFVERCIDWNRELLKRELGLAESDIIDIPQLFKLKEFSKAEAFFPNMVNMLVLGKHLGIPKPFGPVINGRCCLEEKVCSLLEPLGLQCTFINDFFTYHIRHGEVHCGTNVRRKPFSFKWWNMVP

Structure (SMILES)	IC50 [nM]
COc1ccc(N2CCN(C)CC2)cc1C(=O)N[C@@H](CCCNC(=N)CF)c1ncc(-c2ccccc2)o1 [EX-18, (S)-N-(4-(2-Fluoroacetimidamido)-1-(5-phenyloxazol-2-yl)butyl)-2-methoxy-5-(4-methylpiperazin-1-yl)benzamide]	200 to 500
N=C(CF)NCCC[C@H](NC(=O)c1cccc(N2CCCC2)c1)c1ncc(-c2ccccc2)o1 [EX-16, (S)—N-(4-(2-fluoroacetimidamido)-1-(5-phenyloxazol-2-yl)butyl)-3-(pyrrolidin-1-yl)benzamide]	200 to 500
COc1cccc(OC)c1C(=O)N[C@@H](CCCNC(=N)CF)c1ncc(-c2ccc(Cl)cc2)o1 [EX-19]	200 to 500
CN(C)c1ccc2cc(C(=O)N[C@@H](CCCNC(=N)CF)c3ncc(-c4ccc(Cl)cc4)o3)ccc2c1 [EX-7, (S)—N-(1-(5-(4-chlorophenyl)oxazol-2-yl)-4-(2-fluoroacetimidamido)butyl)-6-(dimethylamino)-2-naphthamide]	> 500
COc1cccc(Cl)c1C(=O)N[C@@H](CCCNC(=N)CF)c1ncc(-c2cccc(C)c2)o1 [EX-28, (S)-2-Chloro-N-(4-(2-fluoroacetimidamido)-1-(5-(m-tolyl)oxazol-2-yl)butyl)-6-methoxybenzamide]	200 to 500
COc1cccc(-c2cccc(C(=O)N[C@@H](CCCNC(=N)CF)c3ncc(-c4ccccc4)o3)c2)c1 [EX-5, (S)—N-(4-(2-fluoroacetimidamido)-1-(5-phenyloxazol-2-yl)butyl)-3′-methoxy-[1,1′-biphenyl]-3-carboxamide]	200 to 500
N=C(CF)NCCC[C@H](NC(=O)c1c(Cl)cccc1Cl)c1ncc(-c2ccc(F)cc2)o1 [EX-30, (S)-2,6-Dichloro-N-(4-(2-fluoroacetimidamido)-1-(5-(4-fluorophenyl)oxazol-2-yl)butyl)benzamide]	> 500
COc1cccc(Cl)c1C(=O)N[C@@H](CCCNC(=N)CF)c1ncc(-c2ccc(N(C)C)cc2)o1 [EX-29, (S)-2-Chloro-N-(1-(5-(4-(dimethylamino)phenyl)oxazol-2-yl)-4-(2-fluoroacetimidamido)butyl)-6-methoxybenzamide]	> 500
N=C(CF)NCCC[C@H](NC(=O)c1cccc(-c2ccc(CO)cc2)c1)c1ncc(-c2ccc(Cl)cc2)o1 [EX-9, (S)—N-(1-(5-(4-chlorophenyl)oxazol-2-yl)-4-(2-fluoroacetimidamido)butyl)-4′-(hydroxymethyl)-[1,1′-biphenyl]-3-carboxamide]	> 500
COc1cccc(F)c1C(=O)N[C@@H](CCCNC(=N)CF)c1ncc(-c2cccc(C)c2)o1 [EX-31, (S)-2-Fluoro-N-(4-(2-fluoroacetimidamido)-1-(5-(m-tolyl)oxazol-2-yl)butyl)-6-methoxybenzamide]	200 to 500
COc1cccc(Cl)c1C(=O)N[C@@H](CCCNC(=N)CF)c1ncc(-c2ccc(F)cc2)o1 [EX-24, (S)-2-Chloro-N-(4-(2-fluoroacetimidamido)-1-(5-(4-fluorophenyl)oxazol-2-yl)butyl)-6-methoxybenzamide]	< 200
COc1cc2c(OC)cccc2cc1C(=O)N[C@@H](CCCNC(=N)CF)c1ncc(-c2cccc(Cl)c2)o1 [EX-13, (S)-N-(1-(5-(3-Chlorophenyl)oxazol-2-yl)-4-(2-fluoroacetimidamido)butyl)-3,5-dimethoxy-2-naphthamide]	200 to 500
COc1cccc(Cl)c1C(=O)N[C@@H](CCCNC(=N)CF)c1ncc(-c2cccc(Cl)c2)o1 [EX-33, (S)-2-Chloro-N-(1-(5-(3-chlorophenyl)oxazol-2-yl)-4-(2-fluoroacetimidamido)butyl)-6-methoxybenzamide]	200 to 500
COc1ccc(-c2cnc([C@H](CCCNC(=N)CF)NC(=O)c3c(OC)cccc3OC)o2)cc1 [EX-20, (S)-N-(4-(2-Fluoroacetimidamido)-1-(5-(4-methoxyphenyl)oxazol-2-yl)butyl)-2,6-dimethoxybenzamide]	200 to 500
CN(C)c1cccc(Cl)c1C(=O)N[C@@H](CCCNC(=N)CF)c1ncc(-c2ccc(Cl)cc2)o1 [EX-23, (S)-2-Chloro-N-(1-(5-(4-chlorophenyl)oxazol-2-yl)-4-(2-fluoroacetimidamido)butyl)-6-(dimethylamino)benzamide]	200 to 500
CN(C)c1ccc2cc(C(=O)N[C@@H](CCCNC(=N)CCl)c3ncc(-c4ccccc4)o3)ccc2c1 [EX-3, N-[(1S)-4-(2-chloroethanimidamido)-1-(5-phenyl-1,3-oxazol-2-yl)butyl]-6-(dimethylamino)naphthalene-2-carboxamide]	200 to 500
COc1cccc(OC)c1C(=O)N[C@@H](CCCNC(=N)CF)c1nnc(-c2ccc(Cl)cc2)o1 [EX-39, (S)—N-(1-(5-(4-Chlorophenyl)-1,3,4-oxadiazol-2-yl)-4-(2-fluoroacetimidamido)butyl)-2,6-dimethoxybenzamide]	> 500
COc1ccc(-c2cccc(C(=O)N[C@@H](CCCNC(=N)CF)c3ncc(-c4ccccc4)o3)c2)cc1 [EX-6, (S)—N-(4-(2-fluoroacetimidamido)-1-(5-phenyloxazol-2-yl)butyl)-4′-methoxy-[1,1′-biphenyl]-3-carboxamide]	200 to 500
N=C(CF)NCCC[C@H](NC(=O)c1cccc(-c2cccc(Cl)c2)c1)c1ncc(-c2ccccc2)o1 [EX-1, (S)-3′-chloro-N-(4-(2-fluoroacetimidamido)-1-(5-phenyloxazol-2-yl)butyl)-[1,1′-biphenyl]-3-carboxamide]	200 to 500
COc1cccc(Cl)c1C(=O)N[C@@H](CCCNC(=N)CF)c1ncc(-c2cccc(NC(=O)CCCNC(=O)CCCC[C@@H]3SC[C@@H]4NC(=O)N[C@@H]43)c2)o1 [EX-41, 2-Chloro-N—((S)-4-(2-fluoroacetimidamido)-1-(5-(3-(4-(5-((3aS,4S,6aR)-2-oxohexahydro-1H-thieno[3,4-d]imidazol-4-yl)pentanamido)butanamido)phenyl)oxazol-2-yl)butyl)-6-methoxybenzamide]	200 to 500
N=C(CCl)NCCC[C@H](NC(=O)c1cccc(-c2cccc(Cl)c2)c1)c1ncc(-c2ccccc2)o1 [EX-2, (S)-3′-chloro-N-(4-(2-chloroacetimidamido)-1-(5-phenyloxazol-2-yl)butyl)-[1,1′-biphenyl]-3-carboxamide]	> 500
N=C(CF)NCCC[C@H](NC(=O)c1cccc(-c2cc(Cl)ccn2)c1)c1ncc(-c2ccccc2)o1 [EX-15]	> 500
COc1ccc(OCCCNC(=O)CCCC(=O)NCCCOCCOCCOCCCNC(=O)CCCC[C@@H]2SC[C@@H]3NC(=O)N[C@@H]32)cc1C(=O)N[C@@H](CCCNC(=N)CF)c1ncc(-c2cccc(Cl)c2)o1 [EX-42, N^1-(3-(3-(((S)-1-(5-(3-Chlorophenyl)oxazol-2-yl)-4-(2-fluoroacetimidamido)butyl)carbamoyl)-4-methoxyphenoxy)propyl)-N^5-(15-oxo-19-((3aS,4S,6aR)-2-oxohexahydro-1H-thieno[3,4-d]imidazol-4-yl)-4,7,10-trioxa-14-azanonadecyl)glutaramide]	> 500
COc1cc2ccccc2cc1C(=O)N[C@@H](CCCNC(=N)CF)c1ncc(-c2ccccc2)o1 [EX-36, (S)—N-(4-(2-fluoroacetimidamido)-1-(5-phenyloxazol-2-yl)butyl)-3-methoxy-2-naphthamide]	< 200
COc1ccc(-c2ccccc2)cc1C(=O)N[C@@H](CCCNC(=N)CF)c1ncc(-c2ccccc2)o1 [EX-38, (S)—N-(4-(2-fluoroacetimidamido)-1-(5-phenyloxazol-2-yl)butyl)-4-methoxy-[1,1′-biphenyl]-3-carboxamide]	200 to 500
